In paper PMC4322967, “Afatinib circumvents multidrug resistance via dually inhibiting ATP binding cassette subfamily G member 2 in vitro and in vivo” (Oncotarget, 2014):

Columns and labels:
Assay type in all cases: cell-based
[1] = target: T1, ABCG2 (Homo sapiens, UniProt Q9UNQ0); test: vanadate-sensitive ATPase assay in crude membranes; also 5D3 shift and PhA efflux inhibition in HEK293/ABCG2 cells; design: crude membranes from ABCG2-expressing High Five insect cells
T1 sequence (Q9UNQ0 1-655): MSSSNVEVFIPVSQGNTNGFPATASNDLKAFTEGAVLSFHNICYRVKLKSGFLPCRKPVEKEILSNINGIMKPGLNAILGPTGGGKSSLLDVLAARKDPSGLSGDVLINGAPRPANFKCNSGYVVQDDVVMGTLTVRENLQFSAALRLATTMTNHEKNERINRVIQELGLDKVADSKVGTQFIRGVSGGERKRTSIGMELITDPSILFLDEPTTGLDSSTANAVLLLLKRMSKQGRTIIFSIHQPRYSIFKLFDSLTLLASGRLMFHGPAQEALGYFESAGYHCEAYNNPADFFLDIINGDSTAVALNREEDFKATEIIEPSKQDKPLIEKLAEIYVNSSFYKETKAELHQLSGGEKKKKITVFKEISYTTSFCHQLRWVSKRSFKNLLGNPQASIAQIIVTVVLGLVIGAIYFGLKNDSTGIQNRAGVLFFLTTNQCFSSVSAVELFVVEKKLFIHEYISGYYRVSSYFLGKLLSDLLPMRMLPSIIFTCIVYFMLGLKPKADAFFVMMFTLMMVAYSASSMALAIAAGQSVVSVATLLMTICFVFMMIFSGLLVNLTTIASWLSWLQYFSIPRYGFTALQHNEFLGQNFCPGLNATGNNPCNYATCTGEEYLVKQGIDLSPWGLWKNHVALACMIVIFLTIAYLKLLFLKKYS

[2] = target: T1, ABCG2; design: ABCG2-stably transfected HEK293 cells
[3] = target: T1, ABCG2; test: 5D3 conformational antibody shift at […], flow cytometry; design: ABCG2-stably transfected HEK293 cells
[4] = target: T1, ABCG2; test: flow cytometry efflux of […] PhA in HEK293/ABCG2 versus pcDNA3 cells; design: HEK293 cells stably transfected with ABCG2
[5] = target: T1, ABCG2; test: 5D3 conformational antibody shift at […], flow cytometry; design: ABCG2-stably transfected HEK293 cells; remark: listed apart in the source

SMILES: CN(C)C/C=C/C(=O)Nc1cc2c(Nc3ccc(F)c(Cl)c3)ncnc2cc1O[C@H]1CCOC1 [Afatinib]
- vanadate-sensitive ATPase assay in crude membranes; also 5D3 shift and PhA efflu [1]: afatinib was found to inhibit the ATPase activity of ABCG2 in a dose dependent manner

SMILES: C#Cc1cccc(Nc2ncnc3cc(OCCOC)c(OCCOC)cc23)c1 [erlotinib]
- 5D3 conformational antibody shift at 10 μM, flow cytometry [2]: Other known ABCG2 inhibitors (including FTC, tariquidar and erlotinib) tested were also shown to notably increase 5D3 labeling

SMILES: COc1ccc2c3c([nH]c2c1)[C@H](C=C(C)C)N1C(=O)[C@@H]2CCCN2C(=O)[C@@H]1C3 [fumitremorgin C]
- 5D3 conformational antibody shift at 5 μM, flow cytometry [3]: Other known ABCG2 inhibitors (including FTC, tariquidar and erlotinib) tested were also shown to notably increase 5D3 labeling

SMILES: C=Cc1c(C)c2cc3nc(c4c5[nH]c(cc6nc(cc1[nH]2)C(C)=C6CC)c(C)c5C(=O)[C@@H]4C(=O)OC)[C@@H](CCC(=O)O)[C@@H]3C [pheophorbide A]
- flow cytometry efflux of 1 μM PhA in HEK293/ABCG2 versus pcDNA3 cells [4]: fluorescent ABCG2 probe substrate (pheophorbide A, PhA) for efflux was studied in HEK293/ABCG2 cells by flow cytometry analysis

SMILES: COc1cc2c(cc1OC)CN(CCc1ccc(NC(=O)c3cc(OC)c(OC)cc3NC(=O)c3cnc4ccccc4c3)cc1)CC2 [tariquidar]
- 5D3 conformational antibody shift at 1 μM, flow cytometry [5]: Other known ABCG2 inhibitors (including FTC, tariquidar and erlotinib) tested were also shown to notably increase 5D3 labeling
